Laboratory results taken from patent publication US4596805A, “Substituted dioxopyridopyrimidines” (Ortho Pharmaceutical Corporation, priority 1984, dated 1986).

Columns and labels:
[1] = tested on: spontaneously hypertensive rats; assay: Spontaneously Hypertensive Rat Test (Test 3); assay type: in vivo; conditions: 100 mg/kg body weight, four male spontaneously hypertensive rats, indirect tail-cuff method
Method: Alternatively, one may evaluate the calcium antagonist activity of a test compound by measuring the displacement of nitrendipine to calcium channel antagonist receptors by the test compound according to the methods of Bolger, et al., Biochem. Biophys. Res. Comm., 104(4), 1604-1609 (1982) and Ehlert, et al., Life Sciences, 30, 2191-2202 (1982). In such a test, the amount of specifically-bound nitrendipine to rabbit heart is determined in the presence and absence of test compound. The percent nitrendipine displacement is directly related to the efficacy of the test compound as a calcium antagonist. This assay is described below as the "Nitrendipine Binding Assay". […] Circ. J., 270, 282 (1963). The general techniques for conducting such tests are disclosed in B. Vagnovsky "Automatic Blood-Pressure Measurements in Small Animals", American Laboratory, April, 1973, and "Techniques for the Measurement of Blood Pressure", Institute of Laboratory Animal Resouces NEWS, Vol. XIX (3), G 11-12, Spring, 1976. In this test a group of four male spontaneously hypertensive rats having systolic blood pressures greater than 150 mm Hg are used for each test compound. Systolic blood pressure is measured by the indirect method using a tail-cuff. The compounds are administered at a dose of 100 mg/kg body weight, and the average of the peak decrease in blood pressure is calculated for the four rats. Test results for exemplary compounds of Formula I are provided in Table I below, in which the Rabbit Potassium Depolarized Blood Vessel Test is called "Test 2", the Nitrendipine Binding Assay is called "Test 1" and the Spontaneously Hypertensive Rat test is called "Test 3".

[2] = target: calcium channel antagonist receptors (rabbit heart) (Oryctolagus cuniculus, UniProt P15381); assay: Nitrendipine Binding Assay (Test 1); design: species or system rabbit (female New Zealand white); conditions: 3H-nitrendipine (0.05-0.50 nM), rabbit heart membrane, 90 min at 4° C., pH 7.4; read-out: Test 1 (IC50): concentration required to achieve 50% displacement of specifically-bound nitrendipine
[3] = tested on: vascular smooth muscle tissue from the rabbit aorta; assay: Rabbit Potassium Depolarized Blood Vessel Test (Test 2); assay type: cell-based; conditions: Oryctolagus cuniculus, 10 min; test compound 10^-6 M, 10 minute exposure, 30 mM potassium chloride, rabbit aorta strips, 37° C.; read-out: Test 2 (% Inhibition) of potassium-induced contraction
Text: This tissue can be made to contract when exposed to a depolarizing solution containing an elevated potassium ion concentration and normal amounts of calcium ions. A test compound added to the solution produces a dose-dependent relaxation of the contracted rabbit aortic tissue which gives an indication of calcium antagonist activity of the test compound. This test is described below as the "Rabbit Potassium Depolarized Blood Vessel Test".
In the Rabbit Potassium Depolarized Blood Vessel Test, rabbits are killed by cervical dislocation, and the thoracic aorta is removed. Helical strips, approximately 30-40 mm in length, are cut from the aorta and are suspended in tissue baths of oxygenated Krebs bicarbonate buffer at 37° C. under a resting tension of 4 g. After an equilibration period of approximately 1-2 hours, the strips are challenged with a 30 mM potassium chloride solution and the peak contraction is measured. Following measurement of the peak contraction, the strips are washed and re-equilibrated for an hour in oxygenated Krebs bicarbonate buffer. After the re-equilibration of the aorta strips, the test compound was added to the bath at a concentration of 10-^6 M and the strips were allowed to stand for 10 minutes. After the 10 minute exposure to the test compound, the tissue strips were rechallenged with 30 mM potassium chloride solution and the maximum contraction was measured. The specificity of any inhibition of contraction is determined by addition of 10 mM phenylephrine.
The percent inhibition of contraction is calculated from the formula: […]
where CT is the peak contraction in the presence of the test compound and Cc is the peak contraction without test compound.
Test results for exemplary compounds of Formula I are provided in Table I below, in which the Rabbit Potassium Depolarized Blood Vessel Test is called "Test 2", the Nitrendipine Binding Assay is called "Test 1" and the Spontaneously Hypertensive Rat test is called "Test 3".

calcium channel antagonist receptors (rabbit heart), sequence (P15381 whole entry, other chains not shown): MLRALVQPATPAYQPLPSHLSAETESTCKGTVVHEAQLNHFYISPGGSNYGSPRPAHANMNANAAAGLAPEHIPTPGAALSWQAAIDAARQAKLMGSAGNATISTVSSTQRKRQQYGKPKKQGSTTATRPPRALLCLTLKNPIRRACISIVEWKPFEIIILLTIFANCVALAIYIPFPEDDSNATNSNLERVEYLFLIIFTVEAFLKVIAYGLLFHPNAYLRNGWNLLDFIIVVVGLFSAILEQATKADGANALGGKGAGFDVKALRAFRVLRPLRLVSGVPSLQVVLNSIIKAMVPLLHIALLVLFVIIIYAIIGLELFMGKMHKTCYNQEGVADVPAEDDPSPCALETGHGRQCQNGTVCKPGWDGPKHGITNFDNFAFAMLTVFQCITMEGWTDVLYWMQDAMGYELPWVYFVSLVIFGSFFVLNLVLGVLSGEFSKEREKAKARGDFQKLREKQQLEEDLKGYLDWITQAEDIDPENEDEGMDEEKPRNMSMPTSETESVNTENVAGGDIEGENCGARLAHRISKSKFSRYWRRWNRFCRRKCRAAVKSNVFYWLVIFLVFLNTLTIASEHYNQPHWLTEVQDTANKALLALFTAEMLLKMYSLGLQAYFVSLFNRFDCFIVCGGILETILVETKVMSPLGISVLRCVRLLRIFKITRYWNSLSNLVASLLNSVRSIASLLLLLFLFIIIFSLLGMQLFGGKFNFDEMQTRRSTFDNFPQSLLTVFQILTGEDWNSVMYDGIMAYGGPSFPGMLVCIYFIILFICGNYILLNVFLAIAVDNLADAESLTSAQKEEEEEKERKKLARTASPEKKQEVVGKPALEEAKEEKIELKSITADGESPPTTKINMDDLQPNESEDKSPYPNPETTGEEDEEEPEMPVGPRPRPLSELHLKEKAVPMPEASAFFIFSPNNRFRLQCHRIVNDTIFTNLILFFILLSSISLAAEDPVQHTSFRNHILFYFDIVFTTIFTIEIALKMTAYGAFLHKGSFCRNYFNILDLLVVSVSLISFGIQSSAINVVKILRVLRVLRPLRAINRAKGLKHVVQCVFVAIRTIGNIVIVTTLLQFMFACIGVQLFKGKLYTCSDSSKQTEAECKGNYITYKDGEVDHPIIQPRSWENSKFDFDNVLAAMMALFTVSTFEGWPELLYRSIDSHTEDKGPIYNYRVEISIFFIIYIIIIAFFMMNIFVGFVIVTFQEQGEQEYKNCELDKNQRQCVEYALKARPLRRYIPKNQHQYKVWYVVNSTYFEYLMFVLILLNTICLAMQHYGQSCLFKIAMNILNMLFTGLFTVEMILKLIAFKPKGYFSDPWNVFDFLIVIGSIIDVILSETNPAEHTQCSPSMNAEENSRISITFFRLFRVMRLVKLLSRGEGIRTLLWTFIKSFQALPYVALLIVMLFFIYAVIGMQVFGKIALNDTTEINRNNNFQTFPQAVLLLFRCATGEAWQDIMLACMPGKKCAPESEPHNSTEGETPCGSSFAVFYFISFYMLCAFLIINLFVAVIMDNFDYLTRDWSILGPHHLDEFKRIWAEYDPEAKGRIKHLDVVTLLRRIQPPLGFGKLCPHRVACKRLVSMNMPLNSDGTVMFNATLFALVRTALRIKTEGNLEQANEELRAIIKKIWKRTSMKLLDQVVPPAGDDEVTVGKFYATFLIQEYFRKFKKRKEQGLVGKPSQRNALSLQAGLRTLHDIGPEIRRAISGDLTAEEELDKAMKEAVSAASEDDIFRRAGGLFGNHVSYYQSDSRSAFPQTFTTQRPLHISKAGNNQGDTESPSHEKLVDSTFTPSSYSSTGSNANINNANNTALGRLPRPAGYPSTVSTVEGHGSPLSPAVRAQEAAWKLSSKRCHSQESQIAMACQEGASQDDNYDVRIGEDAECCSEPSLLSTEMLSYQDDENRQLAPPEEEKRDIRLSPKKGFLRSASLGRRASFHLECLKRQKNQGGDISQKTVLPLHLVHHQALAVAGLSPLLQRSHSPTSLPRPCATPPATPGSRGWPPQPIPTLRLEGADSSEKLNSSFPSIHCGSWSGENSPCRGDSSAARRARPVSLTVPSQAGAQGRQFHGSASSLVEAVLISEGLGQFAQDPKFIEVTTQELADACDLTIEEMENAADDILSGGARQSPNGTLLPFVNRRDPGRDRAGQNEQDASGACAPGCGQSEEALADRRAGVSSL
calcium channel antagonist receptors (rabbit heart), sequence (P13806 27-960 partner limits assumed, other chains not shown): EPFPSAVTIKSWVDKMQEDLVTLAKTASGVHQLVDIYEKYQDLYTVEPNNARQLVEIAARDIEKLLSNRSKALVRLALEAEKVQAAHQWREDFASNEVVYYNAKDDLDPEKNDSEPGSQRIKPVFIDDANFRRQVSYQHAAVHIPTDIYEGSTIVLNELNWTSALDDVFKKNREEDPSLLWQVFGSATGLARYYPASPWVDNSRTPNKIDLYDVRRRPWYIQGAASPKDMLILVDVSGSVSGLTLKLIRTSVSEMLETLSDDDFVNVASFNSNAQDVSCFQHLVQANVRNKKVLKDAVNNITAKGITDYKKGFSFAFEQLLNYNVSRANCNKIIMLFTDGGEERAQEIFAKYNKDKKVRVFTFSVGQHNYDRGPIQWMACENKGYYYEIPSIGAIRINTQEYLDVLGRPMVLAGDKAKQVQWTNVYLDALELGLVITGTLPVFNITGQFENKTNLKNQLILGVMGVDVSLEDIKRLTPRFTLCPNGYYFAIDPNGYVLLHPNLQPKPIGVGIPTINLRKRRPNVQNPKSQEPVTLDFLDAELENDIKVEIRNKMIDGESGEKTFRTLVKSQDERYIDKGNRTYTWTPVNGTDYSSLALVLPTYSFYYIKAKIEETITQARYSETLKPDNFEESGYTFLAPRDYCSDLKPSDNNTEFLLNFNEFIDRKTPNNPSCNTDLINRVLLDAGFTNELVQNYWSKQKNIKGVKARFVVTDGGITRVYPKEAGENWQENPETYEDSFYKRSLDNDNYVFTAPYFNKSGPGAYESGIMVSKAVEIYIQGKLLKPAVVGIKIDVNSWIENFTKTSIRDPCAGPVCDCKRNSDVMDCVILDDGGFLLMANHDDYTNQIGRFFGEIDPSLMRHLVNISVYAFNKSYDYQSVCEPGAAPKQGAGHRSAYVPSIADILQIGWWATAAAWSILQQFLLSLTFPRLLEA
calcium channel antagonist receptors (rabbit heart), sequence (P13806 961-1106 partner limits assumed, other chains not shown): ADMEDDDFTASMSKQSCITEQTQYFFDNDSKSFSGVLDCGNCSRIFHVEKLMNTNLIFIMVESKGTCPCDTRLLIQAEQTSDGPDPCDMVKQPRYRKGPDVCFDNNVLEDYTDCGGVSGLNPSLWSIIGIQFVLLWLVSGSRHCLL

Structure (SMILES)	Test 3 (mmHg, 100 mpk): average of the peak decrease in systolic blood pressure [1] [mmHg]	IC50 [2] [µM]	inhibition at 1 µM [3] [%]
CC1=C(C(=O)OCCN(C)Cc2ccccc2)C(c2ccco2)c2c(n(C)c(=O)n(C)c2=O)N1.Cl.O (single isomer, unassigned) [Example III, 2-(N-Benzyl-N-methylamino)ethyl 5-(Furan-2-yl)-5,8-dihydro-1,3,7-trimethyl-2,4-dioxopyrido[2,3-d]pyrimidine-6-carboxylate Monohydrochloride Monohydrate]	-22	6	–
CC1=C(C(=O)OCCN(C)Cc2ccccc2)C(c2ccco2)c2c(n(C)c(=O)n(C)c2=O)N1 (single isomer, unassigned) [Example XVI, 2-(N-benzyl-N-methylamino)ethyl-5-(furan-2-yl)-5,8-dihydro-1,3,7-trimethyl-2,4-dioxopyrido [2,3-d]pyrimidine-6-carboxylate]	–	2	–
COC(=O)C1=C(C)Nc2c(c(=O)n(C)c(=O)n2C)C1c1cccc([N+](=O)[O-])c1 (stereo not shown) [Example I, Methyl 5,8-Dihydro-1,3,7-trimethyl-5-(3-nitrophenyl)-2,4-dioxopyrido[2,3-d]pyrimidine-6-carboxylate]	-11	0.3	54
COC(=O)C1=C(C)Nc2c(c(=O)n(C)c(=O)n2C)C1c1cccc(Cl)c1 (stereo not shown) [Example II, Methyl 5-(3-Chlorophenyl)-5,8-dihydro-1,3,7-trimethyl-2,4-dioxopyrido[2,3-d]pyrimidine-6-carboxylate]	-31	1	3
COC(=O)C1=C(C)Nc2c(c(=O)n(C)c(=O)n2C)C1c1ccco1 (stereo not shown) [Example XV]	-22	100	–
CC1=C(C(=O)OCCN(C)Cc2ccccc2)C(c2cccc(C)c2)c2c(n(C)c(=O)n(C)c2=O)N1 (stereo not shown) [Example X]	-12	3.2	16
CC1=C(C(=O)OCCN(C)Cc2ccccc2)C(c2cccc([N+](=O)[O-])c2)c2c(n(C)c(=O)n(C)c2=O)N1 (stereo not shown) [IV]	-28	0.23	44
COc1cccc(C2C(C(=O)OCCN(C)Cc3ccccc3)=C(C)Nc3c2c(=O)n(C)c(=O)n3C)c1 (stereo not shown) [IX]	-57	2.8	8
CC1=C(C(=O)OCCN(C)Cc2ccccc2)C(c2cccc(Cl)c2)c2c(n(C)c(=O)n(C)c2=O)N1 (stereo not shown) [VI, 2-(N-benzyl-N-methylaminoethyl) 5-(3-chlorophenyl)-5,8-dihydro-1,3,7-trimethyl-2,4-dioxopyrido[2,3-d]pyrimidine-6-carboxylate]	-50	0.1	52
CC1=C(C(=O)OCCN(C)Cc2ccccc2)C(c2cccc(F)c2)c2c(n(C)c(=O)n(C)c2=O)N1 (stereo not shown) [VIII]	-47	0.5	48
CC1=C(C(=O)OCCN(C)Cc2ccccc2)C(c2cccc(Cl)c2)c2c([nH]c(=O)[nH]c2=O)N1 (stereo not shown) [VII]	–	8	–
CC1=C(C(=O)OCCN(C)Cc2ccccc2)C(c2cccc(C#N)c2)c2c(n(C)c(=O)n(C)c2=O)N1 (stereo not shown) [V]	-31	0.65	26
CC1=C(C(=O)OCCN(C)Cc2ccccc2)C(c2ccccc2[N+](=O)[O-])c2c(n(C)c(=O)n(C)c2=O)N1 (stereo not shown) [XIII]	-35	–	–
CC1=C(C(=O)OCCN(C)Cc2ccccc2)C(c2ccccc2[N+](=O)[O-])c2c(n(C)c(=O)n(C)c2=O)N1 (stereo not shown) [XII]	-16	2.5	27
CC1=C(C(=O)OCCN(C)Cc2ccccc2)C(c2ccccc2Cl)c2c(n(C)c(=O)n(C)c2=O)N1 (stereo not shown) [XIV]	-40	1	50
CC1=C(C(=O)OCCN(C)Cc2ccccc2)C(c2cc(Cl)cc(Cl)c2)c2c(n(C)c(=O)n(C)c2=O)N1 (stereo not shown) [XIX]	-37	2.3	28
CC1=C(C(=O)OCCN(C)Cc2ccccc2)C(c2ccccc2)c2c(n(C)c(=O)n(C)c2=O)N1 (stereo not shown) [XI]	-28	1.3	12
CC1=C(C(=O)OCCN(C)Cc2ccccc2)C(c2cccc(C(F)(F)F)c2)c2c(n(C)c(=O)n(C)c2=O)N1 (stereo not shown) [XVIII]	-37	3.4	33
CC1=C(C(=O)OCCN(C)Cc2ccccc2)C(C2CCCCC2)c2c(n(C)c(=O)n(C)c2=O)N1 (stereo not shown) [XVII]	-30	2	18
CC1=C(C(=O)OCCBr)C(c2cccc(Cl)c2)c2c(n(C)c(=O)n(C)c2=O)N1 (stereo not shown) [XXIII]	-16	0.078	54
CC1=C(C(=O)OCCN(C)Cc2ccccc2)C(c2cccc([N+](=O)[O-])c2)c2c([nH]c(=O)[nH]c2=O)N1 (stereo not shown) [XXII]	-11	7.7	–
CC1=C(C(=O)OCCBr)C(c2cccc([N+](=O)[O-])c2)c2c(n(C)c(=O)n(C)c2=O)N1 (stereo not shown) [XXIV]	-10	0.109	26
CC1=C(C(=O)OCCCBr)C(c2cccc(Cl)c2)c2c(n(C)c(=O)n(C)c2=O)N1 (stereo not shown) [XXIX]	–	0.385	44
CC1=C(C(=O)OCCN(C)Cc2ccccc2)C(c2ccc(C(F)(F)F)cc2)c2c(n(C)c(=O)n(C)c2=O)N1 (stereo not shown) [XXI]	-16	2.3	6
CC1=C(C(=O)OCCBr)C(c2ccccc2Cl)c2c(n(C)c(=O)n(C)c2=O)N1 (stereo not shown) [XXVIII]	–	0.175	23
CC1=C(C(=O)OCC(F)(F)F)C(c2cccc(Cl)c2)c2c(n(C)c(=O)n(C)c2=O)N1 (stereo not shown) [XXVII]	–	0.86	–
CC1=C(C(=O)OCCF)C(c2cccc(Cl)c2)c2c(n(C)c(=O)n(C)c2=O)N1 (stereo not shown) [XXVI]	–	0.89	–
CC1=C(C(=O)OCCBr)C(c2cccc(C(F)(F)F)c2)c2c(n(C)c(=O)n(C)c2=O)N1 (stereo not shown) [XXV]	–	1.1	41
CC1=C(C(=O)OCCN(C)Cc2ccccc2)C(c2cccc(Cl)c2)c2c([nH]c(=S)[nH]c2=O)N1 (stereo not shown) [XX]	-16	> 1	–
